Test results reported in US20260325661A1, “ANTIBODY-CONJUGATED IMMUNO-ACTIVATING SMALL MOLECULE COMPOUND, AND USE” (SHENZHEN CONJUGENIX PHARMACEUTICAL TECHNOLOGY CO., LTD, priority 2023, published 2026).
Read-outs that look alike come from different tables or passages of the source.

Tested on: human peripheral blood mononuclear cells (PBMCs)
Assay: ELISA assay of immunocyte activator: induction of IFN-γ in human PBMCs
Type: cell-based
Settings: 24 h, 37 °C, read-out: EC50 IFN-γ ratio (inducing human PBMCs to produce IFN-γ)
Experimental: The immune activity of each compound is represented by the function of inducing human peripheral blood mononuclear cells (PBMCs) to produce the immune cytokine IFN-γ by, and the EC50 values thereof are shown in Table 3.
• 1) Peripheral blood samples from healthy human volunteer were collected into heparin anticoagulant tubes to reach 5 mL of fresh blood, and PBS was added at a ratio of 1:1 to dilute the blood (2 mL+2 mL in conventional blood collection tubes). • 2) 5 mL of lymphocyte separation medium was put in a 15 mL sterile centrifuge tube for use. • 3) The diluted blood was aspirated and slowly added from 1 cm above the separation medium along the tube wall, so that the diluted blood overlaid the separation medium and formed a distinct interface therewith. • 4) The centrifuge tube was centrifuged at 2000 rpm at room temperature for 20 min. Now five layers formed in the centrifuge tube: the top layer was plasma layer, and the layer between the plasma layer and the lymphocyte separation medium was the lymphocyte layer as a white film. • 5) The mononuclear cell layer as a white film in the middle was aspirated carefully and mononuclear cells were aspirated as many as possible. The mononuclear cells were washed by more than 5 volumes of PBS twice, and each time, the mononuclear cells were centrifuged at 1500 rpm for 10 min. • 6) The supernatant was removed, then 1 mL of 1640 medium was added and mixed uniformly. A small amount of the mixture was taken for cell counting.
The prepared PBMCs were plated in a 96-well plate (Costar, 3894) (2×10^5 cells per well). Each compound in Table 3 was taken and added into the wells with plated cells at ten concentrations with uniform gradient distribution (0.0001-10 μM, diluted with […] medium containing […]).

[1] = Homo sapiens, PBMC, no pretreatment marked

SMILES | EC50 [1] [nM] | also measured
CCCCOc1nc(N)c2[nH]c(=O)n(Cc3ccc(NC(=S)Nc4sc5c(c4C(=O)O)CCCC5)cc3)c2n1 [KJ006] | 290 | –
C=CC(=O)Nc1cc(Nc2nccc(-c3cn(C)c4ccccc34)n2)c(OC)cc1N(C)CCN(C)CCCCCCNC(=O)C(CCCCc1cn(CCOCCOCCOCCNC(=O)CCC(=O)N2Cc3ccccc3C#Cc3ccccc32)nn1)NC(=O)CCC(=O)NCc1ccc(Cn2c(=O)[nH]c3c(N)nc(OCCOC)nc32)cc1 (stereo not shown) [Compound K35] | 260 | –
C=CC(=O)Nc1cc(Nc2nccc(-c3cn(C)c4ccccc34)n2)c(OC)cc1N(C)CCN(C)CCCCCCNC(=O)C(CCCCNC(=O)OCc1ccc(NC(=O)[C@H](CCCNC(N)=O)NC(=O)[C@@H](NC(=O)CCOCCOCCOCCOCCNC(=O)CCC(=O)N2Cc3ccccc3C#Cc3ccccc32)C(C)C)cc1)NC(=O)CCC(=O)NCc1ccc(Cn2c(=O)[nH]c3c(N)nc(OCCOC)nc32)cc1 (stereo partly shown) [Compound K37] | – | EC50 (no pretreatment marked): 220 nM
CCCCOc1nc(N)c2[nH]c(=O)n(Cc3ccc(NC(=S)Nc4sc5c(c4C(=O)NC(CCCCN=C=S)C(=O)NCCOCCOCCOCCOCCNC(=O)CCC(=O)N4Cc6ccccc6C#Cc6ccccc64)CCCC5)cc3)c2n1 (stereo not shown) [Compound K47] | 150 | –
CCCCOc1nc(N)c2[nH]c(=O)n(Cc3ccc(NC(=S)Nc4sc5c(c4C(=O)OCC)CCCC5)cc3)c2n1 [KJ005] | 370 | –
CCCCOc1nc(N)c2[nH]cc(Cc3ccc4c(c3)CNCC4)c2n1 [PMQ-1, reference compound] | 320 | –
CC[C@H](C)[C@@H]([C@@H](CC(=O)N1CCCC1[C@H](OC)[C@@H](C)C(=O)N[C@H](C)[C@@H](O)c1ccccc1)OC)N(C)C(=O)[C@@H](NC(=O)[C@H](C(C)C)N(C)C(=O)OCc1ccc(NC(=O)[C@H](CCCNC(N)=O)NC(=O)[C@@H](NC(=O)C(CCCCc2cn(CCOCCOCCOCCNC(=O)CCN3C(=O)C=CC3=O)nn2)NC(=O)CCC(=O)NCc2ccc(Cn3c(=O)[nH]c4c(N)nc(OCCOC)nc43)cc2)C(C)C)cc1)C(C)C (stereo partly shown) [Compound K1] | 100 | –
CCCCOc1nc(N)c2[nH]c(=O)n(Cc3cn(CCOCCOCCOCC(=O)N[C@H](CCCCN=[N+]=[N-])C(=O)O)nn3)c2n1 [Compound 102-N3] | 180 | –
CCCCOc1nc(N)c2[nH]c(=O)n(Cc3ccc(NC(=S)Nc4sc5c(c4C(=O)N[C@@H](CCCCNC(=O)OCc4ccc(NC(=O)[C@H](CCCNC(N)=O)NC(=O)[C@@H](NC(=O)CCCCCN6C(=O)C=CC6=O)C(C)C)cc4)C(=O)NCCOCCOCCOCCOCCNC(=O)CCC(=O)N4Cc6ccccc6C#Cc6ccccc64)CCCC5)cc3)c2n1 [Compound K34] | 131 | –
COCCOc1nc(N)c2[nH]c(=O)n(Cc3ccc(CNC(=O)CCC(=O)NC(CCCCc4cn(CCOCCOCCOCCNC(=O)CCN5C(=O)C=CC5=O)nn4)C(=O)NCCOCCOCCOCCOCCNC(=O)CCC(=O)N4Cc5ccccc5C#Cc5ccccc54)cc3)c2n1 (stereo not shown) [Compound K24] | 3 | –
CCCCOc1nc(N)c2[nH]c(=O)n(CCCc3cn(CCOCCOCCOCC(=O)OCC)nn3)c2n1 [GY1401] | 2 | –
CCC[C@H](C)Oc1nc(N)c2[nH]c(=O)n(Cc3cn(C4CCNCC4)nn3)c2n1 [GY228] | 54 | –
C=C(CN1CCC(n2cc(Cn3c(=O)[nH]c4c(N)nc(O[C@@H](C)CCC)nc43)nn2)CC1)C(=O)NCCOCCOCCOCCOCCNC(=O)CCC(=O)N1Cc2ccccc2C#Cc2ccccc21 [Compound K54] | 18 | –
C=C(CN1CCC(n2cc(Cn3c(=O)[nH]c4c(N)nc(O[C@@H](C)CCC)nc43)nn2)CC1)C(=O)OCC [GY229] | 28 | –
COCCOc1nc(N)c2[nH]c(=O)n(Cc3ccc(CNC(=O)CCC(=O)NC(CCCCc4cnnn4CCOCCOCCOCCN=C=S)C(=O)NCCCC(=O)Nc4ccc(C#CC#N)cc4)cc3)c2n1 (stereo not shown) [Compound K40] | 1 | –
COCCOc1nc(N)c2c(n1)n(Cc1ccc(CNC(=O)CCc3cn(CCOCCOCCOCCNC(=O)OCc4ccc(NC(=O)[C@H](CCCNC(N)=O)NC(=O)[C@@H](NC(=O)CCCCCN5C(=O)C=CC5=O)C(C)C)cc4)nn3)cc1)c(=O)n2C(=O)N1CCN(C)CC1 [Compound K10] | – | EC50 (Homo sapiens, PBMC, Note a: sample pretreated with human liver microsomal enzyme, 2 h): 210 nM
